Measured values published in patent publication US20250099420A1, “SMALL MOLECULE MODULATORS OF GPR139 COMPLEX” (University of Florida Research Foundation, Incorporated, priority 2022, published 2025).
Read-outs that look alike come from different tables or passages of the source.

What was measured:
parental HEK cells = assay: HEK parental Agonist Counterscreen Assay (non-transfected cells); format: cell-based; conditions: for Averaged Max % Response (±St. Dev.): activity relative to known control
Description: The high control for the agonist counterscreen was Forskolin not acetylcholine.

GPR139 = biological target: T1, GPR139 (Homo sapiens, UniProt Q6DWJ6); assay: GPR139 Agonist titration / agonist counterscreen assay (calcium detection, HEK-GPR139 cells); format: cell-based; design: expressed in transfected cells; host or cells: HEK Aequorin cells, Maxcyte transient transfection; conditions: GPR139 Agonist Activity; for Averaged Max % Response (±St. Dev.): activity relative to known control; for EC50: read-out: EC50
T1 sequence (Q6DWJ6 1-353): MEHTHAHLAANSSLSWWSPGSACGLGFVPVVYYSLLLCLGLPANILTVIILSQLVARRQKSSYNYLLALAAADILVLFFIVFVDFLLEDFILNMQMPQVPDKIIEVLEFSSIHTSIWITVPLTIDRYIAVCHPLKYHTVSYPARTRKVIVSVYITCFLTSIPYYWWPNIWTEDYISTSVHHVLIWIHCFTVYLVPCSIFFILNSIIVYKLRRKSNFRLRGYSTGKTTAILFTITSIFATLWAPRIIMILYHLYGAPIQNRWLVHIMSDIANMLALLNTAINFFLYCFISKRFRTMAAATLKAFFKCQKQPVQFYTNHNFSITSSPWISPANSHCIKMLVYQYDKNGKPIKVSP
Experimental: GPR activity was assessed using a calcium detection assay. […] Negative control samples were treated with DMSO. […] Intracellular calcium was measured using Calcium 5.

[1] = Homo sapiens, HEK293, HEK Agonist Activity, parental non-transfected HEK cells
[2] = Homo sapiens, HEK293, HEK Agonist Activity section of Table 4 (parental HEK counterscreen)
[3] = values printed in E-notation without unit
[4] = HEK Agonist Activity section of Table 4 (parental HEK counterscreen)
[5] = HEK Agonist Activity, parental non-transfected HEK cells

| Structure (SMILES) | Averaged Max % Response (±St. Dev.) (GPR139) [%] | Lipophilic Efficiency (logD) (GPR139; based on logD) | Lipophilic Efficiency (logP) (GPR139; based on logP) | Efficiency Ligand (GPR139; ligand efficiency) | Lipophilic Efficiency (logD) (parental HEK cells; HEK Agonist Activity section) | Lipophilic Efficiency (logP) (parental HEK cells; HEK Agonist Activity section) | Averaged Max % Response (±St. Dev.) (parental HEK cells; HEK Agonist Activity section) [%] | EC50 (parental HEK cells; [2]) [nM] | Efficiency Ligand (GPR139) | Hill Slope (GPR139) | Lipophilic Efficiency (logD) (GPR139) | Lipophilic Efficiency (logP) (GPR139) | EC50 (GPR139; HEK-GPR139 cells) [nM] | Hill Slope (GPR139; fitted dose-response curve) | EC50 (GPR139; [3]) [nM] | further results |
| --- | --- | --- | --- | --- | --- | --- | --- | --- | --- | --- | --- | --- | --- | --- | --- | --- |
| O=C(Cn1nc(Cc2ccncc2)c2ccccc2c1=O)NC(O)CCc1ccccc1 (stereo not shown) [SR-01000134029] | 100.82 ± 13.50 | 4.27 | 4.27 | 0.34 |  |  |  |  |  |  |  |  |  |  |  | Lipophilic Efficiency (logD) (parental HEK cells; HEK Agonist Activity): 1.41; Lipophilic Efficiency (logP) (parental HEK cells; HEK Agonist Activity): 1.41; Averaged Max % Response (±St. Dev.) (parental HEK cells; HEK Agonist Activity): 19.31 ± 4.61%; EC50 (parental HEK cells; [1]): > 14100 nM |
| CC(CCc1ccccc1)NC(=O)Cn1ncc2c1-c1ccccc1OC2 (stereo not shown) [SR-01000134913] | 96.78 ± 14.90 |  |  |  | 1.52 | 1.52 | −5.82 ± 11.13 | > 14100 | 0.31 | 0.51 | 2.73 | 2.73 | 863 |  |  |  |
| O=C(Cc1ccccc1)CC1C=CC2=C1c1ccccc1CC2 (stereo not shown) [SR-01000134941] | 109.36 ± 34.06 | 4.30 | 4.30 | 0.39 | 2.40 | 2.40 | 10.65 ± 6.79 | > 14100 |  |  |  |  |  | 0.39 |  |  |
| C=C(CC1N=CC2=C1c1ccccc1CC2)NCc1ccc(C)cc1 (stereo not shown) [SR-01000134947] | 111.20 ± 10.15 | 4.02 | 4.02 | 0.38 | 2.07 | 2.07 | 1.42 ± 10.91 | > 14100 |  |  |  |  |  | 0.36 |  |  |
| CCCc1ccccc1C1=CCC(NC(=O)Cn2ncc3c2-c2ccccc2CC3)=C1 [SR-01000135037] | 95.23 ± 13.49 | 3.95 | 3.94 | 0.32 | 1.70 | 1.69 | −6.83 ± 12.52 | > 14100 |  |  |  |  |  | 1.23 |  |  |
| Cc1cccc(NC(=O)Cn2ncc3c2-c2ccccc2OC3)n1 [SR-01000135038] | 105.92 ± 4.10 | 5.32 | 5.31 | 0.43 | 2.87 | 2.87 | 13.01 ± 4.86 | > 14100 |  |  |  |  |  | 0.77 | 50.5 |  |
| O=C(Cn1nnc2c1-c1ccccc1OC2)Nc1cccc(Cl)c1 [SR-01000135042] | 104.44 ± 8.42 |  |  |  | 1.77 | 1.77 | 16.89 ± 7.08 | > 14100 | 0.37 | 0.33 | 3.32 | 3.32 | 401 |  |  |  |
| O=C(Cn1ncc2c1-c1ccccc1OC2)Nc1ccccn1 [SR-01000135048] | 109.25 ± 4.64 | 4.72 | 4.72 | 0.40 | 3.00 | 3.00 | 12.06 ± 16.35 | > 14100 |  |  |  |  |  | 1.29 | 266 |  |
| Cc1ccc(NC(=O)Cn2ncc3c2-c2ccccc2OC3)cc1F [SR-01000135068] | 114.56 ± 16.65 | 4.08 | 4.08 | 0.40 | 1.72 | 1.72 | −6.35 ± 1.52 | > 14100 |  |  |  |  |  | 0.14 | 61.5 |  |
| COc1ccc(NC(=O)Cn2ncc3c2-c2ccccc2OC3)cc1Cl [SR-01000135070] | 89.37 ± 8.48 | 4.16 | 4.16 | 0.38 | 1.93 | 1.93 | 7.87 ± 13.27 |  |  |  |  |  |  | 0.51 | 82.9 | EC50 (parental HEK cells; [4]): > 14100 nM |
| Cc1ccc2c(c1)-c1c(cnn1CC(=O)Nc1ccc(F)cc1)CO2 [SR-01000136273] | 78.44 ± 11.98 |  |  |  | 1.72 | 1.72 | −14.31 ± 5.07 |  | 0.31 | 0.56 | 2.47 | 2.47 | 2500 |  |  | EC50 (parental HEK cells; [4]): > 14100 nM |
| Cc1ccc(CCNC(=O)Cn2cc3c(n2)CCCC3)cc1 [SR-01000137723] | 136.99 ± 21.58 | 5.09 | 5.09 | 0.52 |  |  |  |  |  |  |  |  |  | 0.44 | 5.7 | Lipophilic Efficiency (logD) (parental HEK cells; HEK Agonist Activity): 1.70; Lipophilic Efficiency (logP) (parental HEK cells; HEK Agonist Activity): 1.70; Averaged Max % Response (±St. Dev.) (parental HEK cells; HEK Agonist Activity): −4.03 ± 1.74%; EC50 (parental HEK cells; [1]): > 14100 nM |
| CC(CCc1ccccc1)NC(=O)Cn1cc2c(n1)CCCC2 (stereo not shown) [SR-01000137757] | 160.07 ± 33.89 | 4.32 | 4.32 | 0.48 |  |  |  |  |  |  |  |  |  | 0.09 | 15.3 | Lipophilic Efficiency (logD) (parental HEK cells; HEK Agonist Activity): 1.35; Lipophilic Efficiency (logP) (parental HEK cells; HEK Agonist Activity): 1.35; Averaged Max % Response (±St. Dev.) (parental HEK cells; HEK Agonist Activity): −12.95 ± 5.94%; EC50 (parental HEK cells; [1]): > 14100 nM |
| Cc1c2cnn(CC(=O)NC(C)c3ccccc3)c(=O)c2c(C)n1Cc1ccc(F)cc1 (stereo not shown) [SR-01000138428] | 81.78 ± 16.61 | 4.85 | 4.85 | 0.38 |  |  |  |  |  |  |  |  |  |  |  | Lipophilic Efficiency (logD) (parental HEK cells; HEK Agonist Activity): 1.03; Lipophilic Efficiency (logP) (parental HEK cells; HEK Agonist Activity): 1.03; Averaged Max % Response (±St. Dev.) (parental HEK cells; HEK Agonist Activity): −0.31 ± 7.41%; EC50 (parental HEK cells; [5]): > 14100 nM |
| COc1cc(-c2noc(CCC(=O)Nc3cccc(C)c3C)n2)cc(OC)c1OC [SR-01000139458] | 116.90 ± 31.97 |  |  |  | 0.80 | 0.80 | 16.10 ± 9.95 |  | 0.29 | 1.12 | 2.20 | 2.20 | 556 |  |  | EC50 (parental HEK cells; [4]): > 14100 nM |
| CNc1ccc(CCNC(=O)Cn2c3ccccc3c3nc(=O)cc(C)n32)cc1 [SR-01000139601] | 109.30 ± 18.80 |  |  |  | 2.04 | 2.04 | −14.37 ± 9.70 | > 14100 | 0.31 | 0.85 | 3.57 | 3.57 | 416 |  |  |  |
| Cc1nn(CC(=O)NC2CCCc3ccccc32)c(=O)c2c1sc1ccccc12 (stereo not shown) [SR-01000139982] | 89.89 ± 26.17 |  |  |  | 1.18 | 1.18 | 9.26 ± 7.81 | > 14100 | 0.29 | 0.79 | 2.38 | 2.38 | 890 |  |  |  |
| O=C(Cn1ncn2cccc2c1=O)NCCc1ccc(Cl)cc1 [SR-01000140172] | 113.63 ± 31.77 |  |  |  | 3.41 | 3.41 | 2.22 ± 10.07 |  | 0.40 | 0.89 | 5.11 | 5.11 | 278 |  |  | EC50 (parental HEK cells; [4]): > 14100 nM |
| CC(C(=O)NCCc1ccc(Cl)cc1)n1ncn2cccc2c1=O (stereo not shown) [SR-01000140260] | 114.94 ± 7.97 | 6.86 | 6.86 | 0.52 |  |  |  |  |  |  |  |  |  | 0.54 | 1.3 | Lipophilic Efficiency (logD) (parental HEK cells; HEK Agonist Activity): 2.84; Lipophilic Efficiency (logP) (parental HEK cells; HEK Agonist Activity): 2.84; Averaged Max % Response (±St. Dev.) (parental HEK cells; HEK Agonist Activity): 19.72 ± 7.61%; EC50 (parental HEK cells; [5]): > 14100 nM |
| CC(=O)N1CCSc2cc(S(=O)(=O)NC3CCC(C)CC3)ccc21 (stereo not shown) [SR-01000141798] | 62.31 ± 7.50 |  |  |  | 2.66 | 2.66 | 2.60 ± 1.15 | > 14100 | 0.31 | 0.65 | 3.15 | 3.15 | 4600 |  |  |  |
